Patent publication US20250327023A1, “TAURINE SUPPLEMENTED CELL CULTURE MEDIUM AND METHODS OF USE” (Regeneron Pharmaceuticals, Inc., priority 2015, published 2025)

Tests used:
Type in all cases: cell-based, Chinese hamster
Ab1-producing CHO cells [1] = experiment: Shake flask culture, taurine in seed train expansion and/or production phase, 17 days, antibody titer (Example 3A); settings: day 17
Description: The benefits of adding taurine to the culture during the expansion seed train phase were assessed in the high-throughput shake flask model. In flask 6a (Table 6), the Ab1-producing CHO cells were thawed in chemically defined (hydrolysate-free and serum-free) base media supplemented with 1 mM taurine. Taurine concentration of basal medium was maintained at 1 mM throughout the expansion phase. During production, the culture basal medium was supplemented with 1 mM taurine on day 0. Glucose and nutrient basal feed were supplied as needed during the 17 day production. Flask 6b cells grew in taurine-free (unsupplemented) chemically defined (hydrolysate-free and serum-free) basal medium throughout the seed train expansion phase. At day 0 of production, the culture basal medium was supplemented with 1 mM taurine. For the 17 day production, glucose and nutrient basal feeds were supplied as needed.

[2] = system: monoclonal antibody (Ab4) producing cell line derived from CHO-K1; experiment: Benchtop-scale 2L bioreactor culture, 14 days, antibody titer (Example 1B), Ab4; settings: about 3 mM taurine on day 0, day 14; for Ab4 approximate titer increase relative to baseline: Bioreactor 4b vs 4a
Description: (§1) Example 1B—Benchtop-Scale Bioreactors: In a similar example, yet on a larger scale of production, 2L bioreactors were inoculated from a seed culture of a monoclonal antibody (Ab2, Ab3 or Ab4) producing cell line derived from CHO-K1. The inoculated cultures were grown at a temperature of 35.5° C., DO set point of 40.4% and air sparge of 22 ccm for 14 days. […] Glucose, antifoam and basal feed were supplied to the bioreactors as needed. Cultures were grown in unsupplemented medium (Bioreactor 2a, 3a, 4a) or grown in about 1 mM taurine-supplemented medium (Ab2 and Ab3) or about 3 mM taurine-supplemented medium (Ab4), added on day 0 of production (Bioreactors 2b, 3b and 4b, respectively).

[3] = system: monoclonal antibody (Ab2) producing cell line derived from CHO-K1; experiment: Benchtop-scale 2L bioreactor culture, 14 days, antibody titer (Example 1B), Ab2; settings: about 1 mM taurine on day 0, day 14; for Ab2 approximate titer increase relative to baseline: Bioreactor 2b vs 2a
Description: as §1

Ab1-producing CHO cells [4] = experiment: Shake flask culture, varying taurine feeding schedules during production phase, antibody titer (Example 3B)
Description: Example 3B: Varying Taurine Feeding Schedules during Production Phase: To determine whether varying standard feeding schedules of taurine had any effect on the protein titer for taurine-supplemented cultures, additional experiments were conducted in analogous shake flask cultures growing Ab1-producing CHO cells. The cells were subjected to varying culture conditions similar to Example 2, where the feeding schedule was the same as before, glucose/nutrient basal feed was added as needed. Ab1-producing cultures were supplemented with a total of 5 mM taurine Similar productivity (7.1 g/L, 6.8 g/L and 7.0 g/L) is observed in varying taurine feeding schedules. Titer values as compared in this experiment are not statistically different (p>0.1) (see Table 7).

[5] = system: monoclonal antibody (Ab1) producing cell line derived from CHO-K1; experiment: Shake flask culture with varying taurine concentrations, 14 days, antibody titer (Example 2); settings: for Ab1 % titer increase vs unsupplemented: day 14
Description: Consistency of the protein titer was tested by varying the amount of taurine added to the culture at production day 0. 250 mL shake flasks were inoculated from a seed culture of a monoclonal antibody (Ab1) producing cell line derived from CHO-K1. The inoculated cells were grown at 35.5° C. for fourteen days and fed glucose and other supplemental nutrients as needed. Cells were grown in chemically defined (hydrolysate-free and serum-free) base media. Each culture contained either no taurine (unsupplemented) or taurine at 0.1 mM, 0.3 mM, 0.5 mM, 0,7 mM, 1 mM, 3 mM, 5 mM, 7,5 mM or 10 mM concentrations.

[6] = system: monoclonal antibody (Ab1) producing cell line derived from CHO-K1; experiment: High-throughput shake flask culture, 17 days, antibody titer (Example 1A); settings: 1 mM taurine at day 0
Description: Example 1A—High-Throughput Shake Flask Culture: 250 mL shake flasks were inoculated from a seed culture of a monoclonal antibody (Abl) producing cell line derived from CHO-K1. The inoculated cells were grown at 35.5° C. for seventeen days and fed glucose and other supplemental nutrients as needed. Cells were grown in chemically defined (hydrolysate-free and serum-free) base media. Each culture flask was either unsupplemented (Flask 1a), or supplemented with 1 mM taurine at day 0 (Flask 1 b).

Ab1-producing CHO cells [7] = experiment: Ammonia by-product in shake flask culture (Example 4); settings: taurine supplemented medium
Description: […] The cells were subjected to varying culture conditions similar to above where glucose/nutrient base feed was added as needed.

[8] = system: monoclonal antibody (Ab3) producing cell line derived from CHO-K1; experiment: Benchtop-scale 2L bioreactor culture, 14 days, antibody titer (Example 1B), Ab3; settings: about 1 mM taurine on day 0; for Ab3 approximate titer increase at day 6 compared to unsupplemented medium collected on same day / Ab3 approximate titer increase at day 9 compared to unsupplemented medium collected on same day / Ab3 approximate titer increase relative to baseline: Bioreactor 3b vs 3a
Description: as §1

[9] = 0.1 mM taurine at day 0, shake flask 5b
[10] = 0.3 mM taurine at day 0, shake flask 5c
[11] = 0.5 mM taurine at day 0, shake flask 5d
[12] = 0.7 mM taurine at day 0, shake flask 5e
[13] = 1 mM taurine at day 0, shake flask 5f
[14] = 5 mM taurine at day 0, shake flask 5g
[15] = 7.5 mM taurine at day 0, shake flask 5h
[16] = 10 mM taurine at day 0, shake flask 5i

NCCS(=O)(=O)O [Taurine, 2-aminoethanesulfonic acid]
Ab1 Titer (average 17-day) (Ab1-producing CHO cells [1]; 1 mM taurine in Only Production Phase, shake flask 6b): 7.8 g/L | Ab1 Titer (average 17-day) (Ab1-producing CHO cells [1]; 1 mM taurine in Seed Train and Production Phases, shake flask 6a): 7.7 g/L | Ab4 Titer (average 14 day antibody titer) ([2]; Bioreactor 4b): 5.3 g/L | Ab4 approximate titer increase relative to baseline [2]: 20% | Ab4 approximate titer increase relative to baseline ([2]; listed as taurine): 20% | Ab2 Titer (average 14 day antibody titer) ([3]; Bioreactor 2b): 8 g/L | Ab2 approximate titer increase relative to baseline [3]: 24% | Ab2 approximate titer increase relative to baseline ([3]; listed as taurine): 24% | Ab1 Day 14 Titer (Ab1-producing CHO cells [4]; taurine schedule: 1 mM day 0, 2 mM days 7, 10 (5 mM total)): 7.0 g/L | Ab1 Day 14 Titer (Ab1-producing CHO cells [4]; taurine schedule: 1 mM days 0, 3, 5, 7, 10 (5 mM total)): 6.8 g/L | Ab1 Day 14 Titer (Ab1-producing CHO cells [4]; taurine schedule: 5 mM day 0): 7.1 g/L | Ab1 Titer (average 14-day) [5, 9]: 6.7 g/L | Ab1 % titer increase vs unsupplemented [5, 9]: 3% | Ab1 Titer (average 14-day) [5, 10]: 6.8 g/L | Ab1 % titer increase vs unsupplemented [5, 10]: 5% | Ab1 Titer (average 14-day) [5, 11]: 6.9 g/L | Ab1 % titer increase vs unsupplemented [5, 11]: 6% | Ab1 Titer (average 14-day) [5, 12]: 7.0 g/L | Ab1 % titer increase vs unsupplemented [5, 12]: 8% | Ab1 Titer (average 14-day) [5, 13]: 7.0 g/L | Ab1 % titer increase vs unsupplemented [5, 13]: 8% | Ab1 Titer (average 14-day) [5, 14]: 7.1 g/L | Ab1 % titer increase vs unsupplemented [5, 14]: 9% | Ab1 Titer (average 14-day) [5, 15]: 7.1 g/L | Ab1 % titer increase vs unsupplemented [5, 15]: 9% | Ab1 Titer (average 14-day) [5, 16]: 7.1 g/L | Ab1 % titer increase vs unsupplemented [5, 16]: 9% | Abl Titer (average 17-day antibody titer) ([6]; 250 mL shake flask 1b, harvested day 17): 7.9 g/L | Approximate titer increase relative to baseline ([6]; day 17, Flask 1b vs unsupplemented Flask 1a): 8% | Abl Ammonia (average 17-day ammonia) (Ab1-producing CHO cells [7]): 1.73 mM″ | Ammonia decrease compared to unsupplemented medium (Ab1-producing CHO cells [7]; listed as taurine): 32% | Ab3 Titer at day 6 ([8]; Bioreactor 3b, day 6): 1.9 g/L | Ab3 Titer at day 9 ([8]; Bioreactor 3b, day 9): 5.3 g/L | Ab3 Titer (average 14 day antibody titer) ([8]; Bioreactor 3b, day 14): 7.3 g/L | Ab3 approximate titer increase at day 6 compared to unsupplemented medium collected on same day ([8]; day 6): 12% | Ab3 approximate titer increase at day 6 compared to unsupplemented medium collected on same day ([8]; day 6, listed as taurine): 12% | Ab3 approximate titer increase at day 9 compared to unsupplemented medium collected on same day ([8]; day 9): 29% | Ab3 approximate titer increase at day 9 compared to unsupplemented medium collected on same day ([8]; day 9, listed as taurine): 29% | Ab3 approximate titer increase relative to baseline ([8]; day 14): 11% | Ab3 approximate titer increase relative to baseline ([8]; day 14, listed as taurine): 11%
